Data published in publication doi:10.1101/2024.05.30.596569v1 (bioRxiv, 2024).
In brackets after ≈: the same amount, converted by molar mass. One block for each compound: values may come before it.

Key:
A. baumannii ATCC 19606 = conditions: Mueller Hinton II broth, 5 × 10^5 cells mL^−1, 18h, turbidity 600 nm, triplicate
[1] = pH 7.4
E.c K0416 = assay: microbe, parasite or virus in culture; conditions: Escherichia coli, K0416, read-out: Minimum inhibitory concentration, E.c K0416
P. aeruginosa strains = conditions: cited from earlier work
E.c ATCC25922 ΔTolC = conditions: Table S3, triplicate

Compound: C[C@@H](O)[C@H](NC(=O)[C@H]1NC(=O)[C@H]([C@@H](C)O)NC(=O)[C@H]2NC(=O)[C@H](CC(N)=O)NC(=O)[C@@H](N)Cc3c[nH]c4c(cccc34)OC2c2c[nH]c3cc(ccc23)C1CCCN)C(=O)N[C@@H](Cc1ccccc1)C(=O)O (stereo partly drawn) [WNWTKTF]
- Minimum inhibitory concentration, Ab ATCC 19606 (A. baumannii ATCC 19606): no activity against A. baumannii

Compound: murepavadin
- MIC90 against P. aeruginosa strains (P. aeruginosa strains): 0.12 µg/mL

Compound: CNC(C)C1CCC(N)C(OC2C(N)CC(N)C(OC3OCC(C)(O)C(NC)C3O)C2O)O1 (stereo not drawn) [GEN, gentamicin]
- Minimum inhibitory concentration, E.c ATCC25922 ΔTolC (E.c ATCC25922 ΔTolC): 0.5 µg/mL (≈ 1.05 µM)
- MIC (E.c K0416): 4 µg/mL (≈ 8.38 µM)

Second part, the compound after the results:

- Distribution coefficient (log D), logD7.4 [1]: 1.12
Compound: CO[C@H]1/C=C/O[C@@]2(C)Oc3c(C)c(O)c4c(O)c(c(/C=N/N5CCN(C)CC5)c(O)c4c3C2=O)NC(=O)/C(C)=C\C=C\[C@H](C)[C@H](O)[C@@H](C)[C@@H](O)[C@@H](C)[C@H](OC(C)=O)[C@@H]1C [Rifampicin]

- MIC (E.c K0416): 64 µg/mL (≈ 117 µM)
Compound: CC(C)(O/N=C(\C(=O)N[C@@H]1C(=O)N2C(C(=O)[O-])=C(C[n+]3ccccc3)CS[C@H]12)c1csc(N)n1)C(=O)O [CZA, ceftazidime]

- MIC (E.c K0416): > 0.5 µg/mL
Compound: O=C(O)c1cn(C2CC2)c2cc(N3CCNCC3)c(F)cc2c1=O [CIP, ciprofloxacin]

- A-B permeability (Caco-2) (Caco-2 cells): 38.0 10^-6 cm s^-1
- B-A permeability (Caco-2) (Caco-2 cells): 17.2 10^-6 cm s^-1
Compound: CC(C)NCC(O)COc1cccc2ccccc12 (stereo not drawn) [Propranolol]
